Assay results published in paper PMC8212709 (Clinical and Translational Science, 2021).

Experiment: Phase I SRD/MRD safety and tolerability
Type: in vivo, human (healthy subjects)
[1] = SRD single dose 17.5 mg (n = 6)

C=CC(=O)N1CC[C@H](Oc2nc(-c3n[nH]c(=O)[nH]3)cc3ccccc23)C1 [TAK‐020]
11 (30.6) n (%): TEAEs (MRD Overall TAK‐020 (N = 36)) | TEAEs, Mild (MRD Overall TAK‐020 (N = 36))
3 (5.6) n (%): TEAEs, Not related (SRD Overall TAK‐020 (N = 54)) | TEAEs, Related (SRD Overall TAK‐020 (N = 54))
30.6%: percentage of subjects who had TEAEs (MRD, overall TAK‐020 group)
4 (11.1) n (%): TEAEs, Related (MRD Overall TAK‐020 (N = 36))
6 (11.1) n (%): TEAEs (SRD Overall TAK‐020 (N = 54)) | TEAEs, Mild (SRD Overall TAK‐020 (N = 54))
3 (50.0) n (%): TEAEs (MRD 5.75 mg q.d. (n = 6)) | TEAEs, Mild (MRD 5.75 mg q.d. (n = 6)) | TEAEs, Mild (MRD 13 mg q.d. (n = 6)) | TEAEs (SRD single dose 70 mg (n = 6)) | TEAEs, Mild (SRD single dose 70 mg (n = 6))
2 (33.3) n (%): TEAEs, Related (MRD 5.75 mg q.d. (n = 6)) | TEAEs, Not related (MRD 13 mg q.d. (n = 6)) | TEAEs (MRD 25 mg q.d. (n = 6)) | TEAEs, Mild (MRD 25 mg q.d. (n = 6)) | TEAEs, Not related (MRD 25 mg q.d. (n = 6)) | TEAEs, Not related (SRD single dose 70 mg (n = 6))
7 (19.4) n (%): TEAEs, Not related (MRD Overall TAK‐020 (N = 36))
11.1%: subjects with study treatment‐related TEAEs (MRD, overall TAK‐020 group (four subjects)) | percentage of subjects who experienced TEAEs (SRD, overall TAK‐020 group)
1 (16.7) n (%): TEAEs (MRD 3.75 mg q.d. (n = 6)) | TEAEs, Mild (MRD 3.75 mg q.d. (n = 6)) | TEAEs, Related (MRD 3.75 mg q.d. (n = 6)) | TEAEs, Not related (MRD 5.75 mg q.d. (n = 6)) | TEAEs, Related (MRD 13 mg q.d. (n = 6)) | TEAEs (MRD 45 mg q.d. (n = 6)) | TEAEs, Mild (MRD 45 mg q.d. (n = 6)) | TEAEs, Not related (MRD 45 mg q.d. (n = 6)) | TEAEs (MRD 60 mg q.d. (n = 6)) | TEAEs, Mild (MRD 60 mg q.d. (n = 6)) | TEAEs, Not related (MRD 60 mg q.d. (n = 6)) | TEAEs (SRD single dose 2.5 mg (n = 6)) | TEAEs, Mild (SRD single dose 2.5 mg (n = 6)) | TEAEs, Related (SRD single dose 2.5 mg (n = 6)) | TEAEs (SRD single dose 8.8 mg (n = 6)) | TEAEs, Mild (SRD single dose 8.8 mg (n = 6)) | TEAEs, Related (SRD single dose 8.8 mg (n = 6)) | TEAEs, Related (SRD single dose 70 mg (n = 6)) | TEAEs (SRD single dose 105 mg (n = 6)) | TEAEs, Mild (SRD single dose 105 mg (n = 6)) | TEAEs, Not related (SRD single dose 105 mg (n = 6))
No subject: clinical laboratory test results (including liver function tests), vital sign findings, cytopenias, or ECG results reported as a TEAE (SRD and MRD parts)
3 (50.00) n (%): TEAEs (MRD 13 mg q.d. (n = 6))
0 n (%): Deaths (MRD 3.75 mg q.d. (n = 6)) | Serious TEAEs (MRD 3.75 mg q.d. (n = 6)) | Serious TEAEs, Not related (MRD 3.75 mg q.d. (n = 6)) | Serious TEAEs, Related (MRD 3.75 mg q.d. (n = 6)) | TEAEs Leading to DC (MRD 3.75 mg q.d. (n = 6)) | TEAEs, Moderate (MRD 3.75 mg q.d. (n = 6)) | TEAEs, Not related (MRD 3.75 mg q.d. (n = 6)) | TEAEs, Severe (MRD 3.75 mg q.d. (n = 6)) | Deaths (MRD 5.75 mg q.d. (n = 6)) | Serious TEAEs (MRD 5.75 mg q.d. (n = 6)) | Serious TEAEs, Not related (MRD 5.75 mg q.d. (n = 6)) | Serious TEAEs, Related (MRD 5.75 mg q.d. (n = 6)) | TEAEs Leading to DC (MRD 5.75 mg q.d. (n = 6)) | TEAEs, Moderate (MRD 5.75 mg q.d. (n = 6)) | TEAEs, Severe (MRD 5.75 mg q.d. (n = 6)) | Deaths (MRD 13 mg q.d. (n = 6)) | Serious TEAEs (MRD 13 mg q.d. (n = 6)) | Serious TEAEs, Not related (MRD 13 mg q.d. (n = 6)) | Serious TEAEs, Related (MRD 13 mg q.d. (n = 6)) | TEAEs Leading to DC (MRD 13 mg q.d. (n = 6)) | TEAEs, Moderate (MRD 13 mg q.d. (n = 6)) | TEAEs, Severe (MRD 13 mg q.d. (n = 6)) | Deaths (MRD 25 mg q.d. (n = 6)) | Serious TEAEs (MRD 25 mg q.d. (n = 6)) | Serious TEAEs, Not related (MRD 25 mg q.d. (n = 6)) | Serious TEAEs, Related (MRD 25 mg q.d. (n = 6)) | TEAEs Leading to DC (MRD 25 mg q.d. (n = 6)) | TEAEs, Moderate (MRD 25 mg q.d. (n = 6)) | TEAEs, Related (MRD 25 mg q.d. (n = 6)) | TEAEs, Severe (MRD 25 mg q.d. (n = 6)) | Deaths (MRD 45 mg q.d. (n = 6)) | Serious TEAEs (MRD 45 mg q.d. (n = 6)) | Serious TEAEs, Not related (MRD 45 mg q.d. (n = 6)) | Serious TEAEs, Related (MRD 45 mg q.d. (n = 6)) | TEAEs Leading to DC (MRD 45 mg q.d. (n = 6)) | TEAEs, Moderate (MRD 45 mg q.d. (n = 6)) | TEAEs, Related (MRD 45 mg q.d. (n = 6)) | TEAEs, Severe (MRD 45 mg q.d. (n = 6)) | Deaths (MRD 60 mg q.d. (n = 6)) | Serious TEAEs (MRD 60 mg q.d. (n = 6)) | Serious TEAEs, Not related (MRD 60 mg q.d. (n = 6)) | Serious TEAEs, Related (MRD 60 mg q.d. (n = 6)) | TEAEs Leading to DC (MRD 60 mg q.d. (n = 6)) | TEAEs, Moderate (MRD 60 mg q.d. (n = 6)) | TEAEs, Related (MRD 60 mg q.d. (n = 6)) | TEAEs, Severe (MRD 60 mg q.d. (n = 6)) | Deaths (MRD Overall TAK‐020 (N = 36)) | Serious TEAEs (MRD Overall TAK‐020 (N = 36)) | Serious TEAEs, Not related (MRD Overall TAK‐020 (N = 36)) | Serious TEAEs, Related (MRD Overall TAK‐020 (N = 36)) | TEAEs Leading to DC (MRD Overall TAK‐020 (N = 36)) | TEAEs, Moderate (MRD Overall TAK‐020 (N = 36)) | TEAEs, Severe (MRD Overall TAK‐020 (N = 36)) | Deaths (SRD Overall TAK‐020 (N = 54)) | Serious TEAEs (SRD Overall TAK‐020 (N = 54)) | Serious TEAEs, Not related (SRD Overall TAK‐020 (N = 54)) | Serious TEAEs, Related (SRD Overall TAK‐020 (N = 54)) | TEAEs Leading to DC (SRD Overall TAK‐020 (N = 54)) | TEAEs, Moderate (SRD Overall TAK‐020 (N = 54)) | TEAEs, Severe (SRD Overall TAK‐020 (N = 54)) | Deaths (SRD single dose 0.1 mg (n = 6)) | Serious TEAEs (SRD single dose 0.1 mg (n = 6)) | Serious TEAEs, Not related (SRD single dose 0.1 mg (n = 6)) | Serious TEAEs, Related (SRD single dose 0.1 mg (n = 6)) | TEAEs (SRD single dose 0.1 mg (n = 6)) | TEAEs Leading to DC (SRD single dose 0.1 mg (n = 6)) | TEAEs, Mild (SRD single dose 0.1 mg (n = 6)) | TEAEs, Moderate (SRD single dose 0.1 mg (n = 6)) | TEAEs, Not related (SRD single dose 0.1 mg (n = 6)) | TEAEs, Related (SRD single dose 0.1 mg (n = 6)) | TEAEs, Severe (SRD single dose 0.1 mg (n = 6)) | Deaths (SRD single dose 0.5 mg (n = 6)) | Serious TEAEs (SRD single dose 0.5 mg (n = 6)) | Serious TEAEs, Not related (SRD single dose 0.5 mg (n = 6)) | Serious TEAEs, Related (SRD single dose 0.5 mg (n = 6)) | TEAEs (SRD single dose 0.5 mg (n = 6)) | TEAEs Leading to DC (SRD single dose 0.5 mg (n = 6)) | TEAEs, Mild (SRD single dose 0.5 mg (n = 6)) | TEAEs, Moderate (SRD single dose 0.5 mg (n = 6)) | TEAEs, Not related (SRD single dose 0.5 mg (n = 6)) | TEAEs, Related (SRD single dose 0.5 mg (n = 6)) | TEAEs, Severe (SRD single dose 0.5 mg (n = 6)) | Deaths (SRD single dose 2.5 mg (n = 6)) | Serious TEAEs (SRD single dose 2.5 mg (n = 6)) | Serious TEAEs, Not related (SRD single dose 2.5 mg (n = 6)) | Serious TEAEs, Related (SRD single dose 2.5 mg (n = 6)) | TEAEs Leading to DC (SRD single dose 2.5 mg (n = 6)) | TEAEs, Moderate (SRD single dose 2.5 mg (n = 6)) | TEAEs, Not related (SRD single dose 2.5 mg (n = 6)) | TEAEs, Severe (SRD single dose 2.5 mg (n = 6)) | Deaths (SRD single dose 4.4 mg (n = 6)) | Serious TEAEs (SRD single dose 4.4 mg (n = 6)) | Serious TEAEs, Not related (SRD single dose 4.4 mg (n = 6)) | Serious TEAEs, Related (SRD single dose 4.4 mg (n = 6)) | TEAEs (SRD single dose 4.4 mg (n = 6)) | TEAEs Leading to DC (SRD single dose 4.4 mg (n = 6)) | TEAEs, Mild (SRD single dose 4.4 mg (n = 6)) | TEAEs, Moderate (SRD single dose 4.4 mg (n = 6)) | TEAEs, Not related (SRD single dose 4.4 mg (n = 6)) | TEAEs, Related (SRD single dose 4.4 mg (n = 6)) | TEAEs, Severe (SRD single dose 4.4 mg (n = 6)) | Deaths (SRD single dose 8.8 mg (n = 6)) | Serious TEAEs (SRD single dose 8.8 mg (n = 6)) | Serious TEAEs, Not related (SRD single dose 8.8 mg (n = 6)) | Serious TEAEs, Related (SRD single dose 8.8 mg (n = 6)) | TEAEs Leading to DC (SRD single dose 8.8 mg (n = 6)) | TEAEs, Moderate (SRD single dose 8.8 mg (n = 6)) | TEAEs, Not related (SRD single dose 8.8 mg (n = 6)) | TEAEs, Severe (SRD single dose 8.8 mg (n = 6)) | Deaths [1] | Serious TEAEs [1] | Serious TEAEs, Not related [1] | Serious TEAEs, Related [1] | TEAEs [1] | TEAEs Leading to DC [1] | TEAEs, Mild [1] | TEAEs, Moderate [1] | TEAEs, Not related [1] | TEAEs, Related [1] | TEAEs, Severe [1] | Deaths (SRD single dose 35 mg (n = 6)) | Serious TEAEs (SRD single dose 35 mg (n = 6)) | Serious TEAEs, Not related (SRD single dose 35 mg (n = 6)) | Serious TEAEs, Related (SRD single dose 35 mg (n = 6)) | TEAEs (SRD single dose 35 mg (n = 6)) | TEAEs Leading to DC (SRD single dose 35 mg (n = 6)) | TEAEs, Mild (SRD single dose 35 mg (n = 6)) | TEAEs, Moderate (SRD single dose 35 mg (n = 6)) | TEAEs, Not related (SRD single dose 35 mg (n = 6)) | TEAEs, Related (SRD single dose 35 mg (n = 6)) | TEAEs, Severe (SRD single dose 35 mg (n = 6)) | Deaths (SRD single dose 70 mg (n = 6)) | Serious TEAEs (SRD single dose 70 mg (n = 6)) | Serious TEAEs, Not related (SRD single dose 70 mg (n = 6)) | Serious TEAEs, Related (SRD single dose 70 mg (n = 6)) | TEAEs Leading to DC (SRD single dose 70 mg (n = 6)) | TEAEs, Moderate (SRD single dose 70 mg (n = 6)) | TEAEs, Severe (SRD single dose 70 mg (n = 6)) | Deaths (SRD single dose 105 mg (n = 6)) | Serious TEAEs (SRD single dose 105 mg (n = 6)) | Serious TEAEs, Not related (SRD single dose 105 mg (n = 6)) | Serious TEAEs, Related (SRD single dose 105 mg (n = 6)) | TEAEs Leading to DC (SRD single dose 105 mg (n = 6)) | TEAEs, Moderate (SRD single dose 105 mg (n = 6)) | TEAEs, Related (SRD single dose 105 mg (n = 6)) | TEAEs, Severe (SRD single dose 105 mg (n = 6))
